We go through 1 molecule from patent US20220016277A1, “MACROCYCLIC COMPLEXES OF RADIONUCLIDES AND THEIR USE IN RADIOTHERAPY OF CANCER” (Cornell University, priority 2018, published 2022).

Data set [1] can be described thus: Kinetic inertness of Lu^3+ complex of macropa: transchelation challenge. As to conditions: Lu^3+ complex of macropa formed in situ; addition of 10 equiv of EDTA; pH 7.4. Format: physicochemical. As for the experimental part:
(§1) Kinetic Inertness of La^3+ and Lu^3+ Complexes of Macropa: Transchelation Challenge. A stock solution of ethylenediaminetetraacetic acid (EDTA, 100 mM) was made in MOPS buffer (prepared as described above) by adjusting the pH of the initial suspension to 6.6 using aqueous NMe4OH. A stock solution of diethylenetriaminepentaacetic acid (DTPA, 125 mM) was prepared in H2O by adjusting the pH to 7.4 as described for EDTA. This solution was serially diluted with H2O to yield 12.5 mM and 1.25 mM solutions of DTPA.
(§2) The preformed La^3+ and Lu^3+ complexes of macropa were challenged with EDTA. […] […]. Solutions were repeatedly analyzed by UV spectroscopy over the course of 21 days for any spectral changes. The final pH of each solution was between 7.18 and 7.25.

Data set [2] in a line: Kinetic inertness of La^3+ complex of macropa: transchelation challenge. In kind it is physicochemical. As to conditions: La^3+ complex of macropa formed in situ; 1000 equiv of DTPA; whole 21-day observation. The method, then: as §1, §2
The complex formed in situ between La^3+ and macropa was more rigorously challenged with excess DTPA. A solution containing 500 μM of complex, prepared using the LaCl3 and macropa stock solutions described above, was left to equilibrate for 5 min. Subsequently, it was portioned into cuvettes and diluted with either 125 mM DTPA, 12.5 mM DTPA, 1.25 mM DTPA, or MOPS to yield solutions containing 1000-, 100-, 10-, or 0-fold excess DTPA and 100 μM concentration of macropa. These solutions were repeatedly analyzed by UV spectroscopy over the course of 21 days for any spectral changes. The final pH of each solution was between 7.11 and 7.42.

In the case of `O=C(O)c1cccc(CN2CCOCCOCCN(Cc3cccc(C(=O)O)n3)CCOCCOCC2)n1` [macropa, N,N′-bis[(6-carboxy-2-pyridil)methyl]-4,13-diaza-18-crown-6], in data set [1], the “time until Lu^3+ ion was transchelated” value is no more than 1 min. Also, in data set [2], the “time La^3+ complex remained intact” value was “up to 21 days”.
